Source: ChEMBL document CHEMBL5050856, “Atf6 modulators and uses thereof” (2021)

Assays:
Assay type in all cases: cell-based
U2OS [1] = test: Modulation of ATF6 activity in human U2OS cells at 1 uM measured by TRE-luciferase reporter assay relative to control
U2OS [2] = test: Modulation of ATF6 activity in human U2OS cells at 1 uM in presence of ER stress inducer thapsigargin (Tg) measured by TRE-luciferase reporter assay relative to control
U2OS [3] = test: Modulation of ATF6 activity in human U2OS cells at 10 uM in presence of ER stress inducer thapsigargin (Tg) measured by TRE-luciferase reporter assay relative to control
U2OS [4] = test: Modulation of ATF6 activity in human U2OS cells at 10 uM measured by TRE-luciferase reporter assay relative to control

CC(c1c(Cl)cccc1Cl)n1cc(C#Cc2nnc(-c3ccccn3)s2)cn1 (configuration not stated)
Activity (U2OS [1]): 0%
Activity (U2OS [2]): 75%
Activity (U2OS [3]; filed as activator): 100%
Activity (U2OS [4]): 0%

CC(c1ccc(C(F)(F)F)cc1C(F)(F)F)n1cc(/C=C/c2nnc(-c3ccccn3)s2)cn1 (configuration not stated)
Activity (U2OS [2]; filed as activator): 100%
Activity (U2OS [3]): < 50%

CC(c1ccc(C(F)(F)F)cc1C(F)(F)F)n1cc(CCc2nnc(-c3ccccn3)s2)cn1 (configuration not stated)
Activity (U2OS [2]): 75%
Activity (U2OS [3]): < 50%

FC(F)(F)c1ccc(Cn2cc(C#Cc3nnc(-c4ccccn4)s3)cn2)c(C(F)(F)F)c1
Activity (U2OS [2]): 50%
Activity (U2OS [3]): 75%

O=C(Nc1cnn(C2CCCC2)c1)c1cc(-c2ccco2)on1
Activity (U2OS [1]): 0%
Activity (U2OS [2]; filed as activator): > 150%
Activity (U2OS [3]; filed as activator): > 150%
Activity (U2OS [4]): 0%

O=C(Nc1cnn(C2CCNC2)c1)c1cc(-c2ccco2)on1 (configuration not stated)
Activity (U2OS [1]): 0%
Activity (U2OS [2]; filed as activator): 125%
Activity (U2OS [3]; filed as activator): > 150%
Activity (U2OS [4]): 0%

O=C(Nc1cnn(C2CNC2)c1)c1cc(-c2ccco2)on1
Activity (U2OS [1]): 0%
Activity (U2OS [2]; filed as activator): 125%

O=C(Nc1cnn(CC2CCCC2)c1)c1cc(-c2ccco2)on1
Activity (U2OS [1]): 0%
Activity (U2OS [2]; filed as activator): > 150%
Activity (U2OS [3]; filed as activator): > 150%
Activity (U2OS [4]): 0%

O=C(Nc1cnn(Cc2c(Cl)cncc2Cl)c1)c1cc(-c2ccco2)on1
Activity (U2OS [1]): 0%
Activity (U2OS [2]; filed as activator): 100%
Activity (U2OS [3]; filed as activator): 125%
Activity (U2OS [4]): 0%

O=C(Nc1cnn(Cc2ccc(C(F)(F)F)cc2)c1)c1cc(-c2ccco2)on1
Activity (U2OS [1]): 0%
Activity (U2OS [2]; filed as activator): 100%
Activity (U2OS [3]): 75%

O=C(Nc1cnn(Cc2ccc(C(F)(F)F)cc2C(F)(F)F)c1)c1cc(-c2ccco2)on1
Activity (U2OS [2]): < 50%
Activity (U2OS [3]): < 50%

O=C(Nc1cnn(Cc2ccccc2)c1)c1cc(-c2ccco2)on1
Activity (U2OS [1]): 0%
Activity (U2OS [2]; filed as activator): 100%
Activity (U2OS [3]; filed as activator): 125%
Activity (U2OS [4]): 25%

CC(c1ccc(C(F)(F)F)cc1C(F)(F)F)n1cc(C#Cc2nnc(-c3ccccn3)s2)cn1 (stereo in doubt; 2-1)
Activity (U2OS [2]): 50%
Activity (U2OS [3]): < 50%

CC(c1ccc(C(F)(F)F)cc1C(F)(F)F)n1cc(C#Cc2nnc(-c3ccccn3)s2)cn1 (stereo in doubt; 2-2)
Activity (U2OS [2]): < 50%
Activity (U2OS [3]): < 50%

CC(c1ccc(C(F)(F)F)cc1C(F)(F)F)n1cc(/C=C\c2nnc(-c3ccccn3)s2)cn1 (stereo in doubt; 2-6)
Activity (U2OS [2]; filed as activator): 100%
Activity (U2OS [3]): 50%

CC(c1ccc(C(F)(F)F)cc1C(F)(F)F)n1cc(/C=C\c2nnc(-c3ccccn3)s2)cn1 (stereo in doubt; 2-7)
Activity (U2OS [2]; filed as activator): 100%
Activity (U2OS [3]): 75%

CC(c1ccc(C(F)(F)F)cc1C(F)(F)F)n1cc(/C=C\c2nnc(-c3ccccn3)s2)cn1 (stereo in doubt; 2-8)
Activity (U2OS [2]; filed as activator): 100%
Activity (U2OS [3]): 50%

CC(c1ccc(C(F)(F)F)cc1C(F)(F)F)n1cc(C#Cc2nnc(-c3cnccn3)s2)cn1 (stereo in doubt; 2-10)
Activity (U2OS [2]): 50%
Activity (U2OS [3]): 75%

Cc1nn(C(C)c2ccc(C(F)(F)F)cc2C(F)(F)F)cc1C#Cc1nnc(-c2ccccn2)s1 (stereo in doubt; 2-11)
Activity (U2OS [2]): 50%
Activity (U2OS [3]): 50%

CC(c1ccc(C(F)(F)F)cc1C(F)(F)F)n1cc(C#Cc2nnc(-c3cnccn3)s2)cn1 (stereo in doubt; 2-21)
Activity (U2OS [2]): 75%
Activity (U2OS [3]): 75%

CC(c1ccc(C(F)(F)F)cc1C(F)(F)F)n1cc(C#Cc2nnc(-c3cnccn3)s2)cn1 (stereo in doubt; 2-22)
Activity (U2OS [2]): 50%
Activity (U2OS [3]): 75%

Cc1nn(C(C)c2ccc(C(F)(F)F)cc2C(F)(F)F)cc1C#Cc1nnc(-c2ccccn2)s1 (stereo in doubt; 2-23)
Activity (U2OS [2]): 75%
Activity (U2OS [3]): 50%

Cc1nn(C(C)c2ccc(C(F)(F)F)cc2C(F)(F)F)cc1C#Cc1nnc(-c2ccccn2)s1 (stereo in doubt; 2-24)
Activity (U2OS [2]): < 50%
Activity (U2OS [3]): < 50%

CC(C1CCCC1)n1cc(NC(=O)c2cc(-c3ccco3)on2)cn1 (stereo in doubt; 3-5)
Activity (U2OS [1]): 0%
Activity (U2OS [2]; filed as activator): 125%
Activity (U2OS [3]; filed as activator): > 150%
Activity (U2OS [4]): 0%

CC(C1CCCC1)n1cc(NC(=O)c2cc(-c3ccco3)on2)cn1 (stereo in doubt; 3-17)
Activity (U2OS [1]): 0%
Activity (U2OS [2]; filed as activator): 125%
Activity (U2OS [3]; filed as activator): 125%
Activity (U2OS [4]): 0%

CC(C1CCCC1)n1cc(NC(=O)c2cc(-c3ccco3)on2)cn1 (stereo in doubt; 3-18)
Activity (U2OS [1]): 0%
Activity (U2OS [2]; filed as activator): 100%
Activity (U2OS [3]; filed as activator): 125%
Activity (U2OS [4]): 0%

O=C(Nc1cnn(C2CCOC2)c1)c1cc(-c2cccs2)on1 (stereo in doubt; 3-19)
Activity (U2OS [1]): 0%
Activity (U2OS [2]; filed as activator): > 150%
Activity (U2OS [3]; filed as activator): > 150%
Activity (U2OS [4]): 25%

O=C(Nc1cnn(C2CCOC2)c1)c1cc(-c2ccccn2)on1 (stereo in doubt; 3-20)
Activity (U2OS [1]): 0%
Activity (U2OS [2]; filed as activator): 100%
Activity (U2OS [3]; filed as activator): > 150%
Activity (U2OS [4]): 0%

O=C(Nc1cnn(C2CCOC2)c1)c1cc(-c2ccccn2)on1 (stereo in doubt; 3-21)
Activity (U2OS [1]): 0%
Activity (U2OS [2]; filed as activator): > 150%
Activity (U2OS [3]; filed as activator): > 150%
Activity (U2OS [4]): 25%

O=C(Nc1cnn(C2CCOC2)c1)c1cc(-c2cccs2)on1 (stereo in doubt; 3-22)
Activity (U2OS [1]): 0%
Activity (U2OS [2]; filed as activator): 125%
Activity (U2OS [3]; filed as activator): > 150%
Activity (U2OS [4]): 25%

O=C(Nc1cnn(C2CCOC2)c1)c1cc(-c2cccs2)on1 (stereo in doubt; 3-23)
Activity (U2OS [1]): 25%
Activity (U2OS [2]; filed as activator): > 150%
Activity (U2OS [3]; filed as activator): > 150%
Activity (U2OS [4]): > 50%

CC(C1CCOC1)n1cc(NC(=O)c2cc(-c3ccco3)on2)cn1 (stereo in doubt; 3-24)
Activity (U2OS [1]): 0%
Activity (U2OS [2]; filed as activator): 100%
Activity (U2OS [3]; filed as activator): > 150%
Activity (U2OS [4]): 25%

CC(C1CCOC1)n1cc(NC(=O)c2cc(-c3ccco3)on2)cn1 (stereo in doubt; 3-25)
Activity (U2OS [1]): 0%
Activity (U2OS [2]; filed as activator): 100%
Activity (U2OS [3]; filed as activator): > 150%
Activity (U2OS [4]): 0%

CC(C1CCOC1)n1cc(NC(=O)c2cc(-c3ccco3)on2)cn1 (stereo in doubt; 3-26)
Activity (U2OS [1]): 0%
Activity (U2OS [2]; filed as activator): > 150%
Activity (U2OS [3]; filed as activator): > 150%
Activity (U2OS [4]): > 50%

CC(C1CCOC1)n1cc(NC(=O)c2cc(-c3ccco3)on2)cn1 (stereo in doubt; 3-27)
Activity (U2OS [1]): 0%
Activity (U2OS [2]; filed as activator): 100%
Activity (U2OS [3]; filed as activator): > 150%
Activity (U2OS [4]): 25%
